Here are results for 20 compounds from patent US5824657A, “Aminoacyl sulfamides for the treatment of hyperproliferative disorders” (priority 1997, dated 1998).

SMILES strings stand for the structures. Like-named read-outs stand apart in the source and are kept apart here.

Assay [1] deals with aminoacyl-tRNA synthetases (aaRS) isolated from HeLa cells. Nature of the assay: IC50 determination, aaRS charging and trichloroacetic acid precipitation assay, aaRS partially purified from HeLa cell extracts. The note with it: preincubation 20 minutes at 25° C., reaction 5-20 minutes. In kind it is biochemical. The protocol: IC50 determinations for the aminoacyl-tRNA synthetases (aaRS) isolated from HeLa cells were carried out using a modification of the aaRS charging and trichloroacetic acid precipitation assay described previously (see examples: D. Kern et. al., Biochemie, 61, 1257-1272 (1979) and J. Gilbart et. al. Antimicrobial Agents and Chemotherapy, 37(1), 32-38 (1993)). […] For practical purposes, the minimal acceptable value is approximately 2000 cpm per 10 minute reaction. The final dilution of the HeLa extract in the assays for the aaRS enzymes varies from 50 to 1200-fold.
Test compounds were typically present as serial dilutions in concentrations ranging from 0.35 nM to 35 μM. Test compound solutions were prepared by dissolving test compounds in 100% dimethyl sulfoxide and diluting to the final concentration with 50 mM HEPES, pH 7.5. IC50 determinations were typically performed in duplicate with each experiment containing 4-8 concentrations of test compound and with duplicate controls containing no inhibitor.
The reaction was incubated at 25° C. for 5-20 minutes. At specified time points a 15 microliter aliquot was removed and added to a well of a Millipore filtration plate (Multiscreen-FB, MAFB NOB 10) containing 100 microliters of cold 5% (wt/vol) trichloroacetic acid. Trichloroacitic acid precipitable material was collected by filtration on a Millipore Multiscreen filtration station, washed twice with cold 5% trichloroacetic acid, twice with water, and dried. Plates were typically allowed to air dry for several hours or baked at 50° C. in a vacuum oven for 30 minutes. The radioactivity on the dried plates was quantitated by the addition of Packard Microscint-20 to the wells and counting with a Packard TopCount scintillation counter.
Inhibitor activity typically was reported as a percentage of the control aaRS activity. […] The IC50 (in nM, Hela Cells) values of representative compounds of the present invention are listed in column 5 of Table I.

The test system of assay [2] is human epidermoid carcinoma cell line A-253 (ATCC HTB 41). Kind of assay: MTT assay, human epidermoid carcinoma cell line. In kind it is cell-based. The note with it: read-out: IC50 Human Epidermoid Carcinoma Cells ATCC # HTB 41. The protocol: The MTT assay was used as a model to measure the inhibitory effects of the compounds of Formula I. The MTT assay is considered the most convenient modern assay for the determination of cell viability and cell proliferation. An MTT assay kit is commercially available (Chemicon International Inc., Temecula, Calif.). The MTT assay was performed according to manufacturer's instructions as outlined below.
A human epidermoid carcinoma cell line, designated as A-253 (ATCC HTB 41), was obtained in frozen vials from the American Type Culture Collection, Rockville, Md. Monolayer cultures were established from the vials by growth in RPMI 1640 medium supplemented with 10% fetal bovine serum (heat-inactivated), 2 mM L-glutamine, and pen-strep (100 units/ml; 100 μg/ml). The cultures were incubated at 37±1.5° C. in 5±1% CO2 in humidified air and were passaged weekly to avoid overgrowth. The laboratory cultures used for the present study were at passage seven after receipt of frozen stocks from ATCC.
Compounds of Formula I in powder form were stored at room temperature in plastic micro centrifuge tubes. Each tube was placed in a plastic bag containing desiccant. Each test compound was prepared as a 2 mg/ml solution in RPMI 1640 medium (non-supplemented) on the day of use, and the appropriate dilutions were prepared with the same vehicle.
Each compound was handled by sterile techniques in Class II, Type B biological safety cabinets.
The reference control compound was methotrexate at concentrations of 0.5 μg/ml to 50 μg/ml. A 1 mg/ml stock was prepared on the day of dosing and diluted to the appropriate concentrations using RPMI 1640 medium (non-supplemented).
A blank control was included in the MTT assay in order to determine the absorbance associated with the absence of any cells. This control was RPMI 1640 culture medium carried through the same procedures used to culture the cells in the microwell plates and to conduct the MTT assay color development. The microwell plate reader was zeroed against the blank control prior to recording the absorbance in the test wells.
Laboratory monolayer cultures of A-253 cells were trypsinized and seeded at a concentration of 24,000 cells in 0.05 ml of complete RPMI 1640 culture medium per well in 96-well plates. Eight wells in a column were seeded for each test condition. The blank control was prepared by adding 0.05 ml of culture medium (no cells) to 8 wells in the first column of each plate. A separate microwell plate was used for each compound of Formula I.
The test compound treatments were initiated immediately after seeding the cells by adding 0.05 ml of treatment medium to each microwell. Ten different test compound concentrations were prepared in culture medium (without serum), and each concentration was applied to a volume of eight wells on the appropriate plate. The final concentrations in the wells were 1000, 500, 250, 100, 50, 25, 10, 5, 2.5, and 1 μg/ml.
An untreated (zero-dose) condition was included as a column of 8 wells on each plate. The zero-dose and blank control wells received 0.05 ml of culture medium (without serum). The microwell plates were placed in an incubator at 37±1.5° C. in 5% CO2 in humidified air for an exposure period of 72±0.5 hours.
After the exposure period, 0.1 ml of MTT dye solution (0.5 mg/ml in serum free RPMI 1640 medium) was added to each micowell. The cultures were returned to the incubator for 2±0.1 hours. Then the medium was removed from each well and placed into a clean microwell plate for temporary storage. A volume of 0.1 ml of color development solution (Solution C, isopropanol with 0.04M HCl, Chemicon MTT Assay kit, Chemicon International Inc., Temecula, Calif.) was added to each new microwell. The contents were carefully mixed and allowed to sit at room temperature for approximately 1 hour. The medium that was saved from each microwell then was pipetted back into the well from which it originally came. […]

Assay [3] concerns normal human skin fibroblasts cell line ATCC CRL 1501. Nature of the assay: MTT assay, normal skin fibroblasts. In kind it is cell-based. The note with it: Skin fibroblast, similar manner to HTB 41 assay.
Method: The MTT assay was used as a model to measure the inhibitory effects of the compounds of Formula I. The MTT assay is considered the most convenient modern assay for the determination of cell viability and cell proliferation. […] The MTT assay was performed according to manufacturer's instructions as outlined below.
The cultures were returned to the incubator for 2±0.1 hours. Then the medium was removed from each well and placed into a clean microwell plate for temporary storage. A volume of 0.1 ml of color development solution (Solution C, isopropanol with 0.04M HCl, Chemicon MTT Assay kit, Chemicon International Inc., Temecula, Calif.) was added to each new microwell. […] The absorbance at 540 nm wavelength was determined in a microwell plate reader within two hours of the final preparation of the plates.
The absorbance at 540 nm was recorded for each well by the microwell plate reader after the instrument was zeroed against the blank controls for each plate. The mean absorbance for each test condition was calculated and compared to the mean absorbance for the zero-dose wells in order to obtain percent values. […]
In assay [4] the test system is isoleucyl-tRNA synthetase. The note with it: cited from earlier work.
Assay [5] concerns Gram positive bacterial pathogens such as Staphylococcus aureus. The note with it: cited from earlier work.
The mark [6] stands for this setting: A253, MTT assay, exposure 72 hours, plot extended by eye for compounds active at lowest dose.

As to `Nc1ncnc2c1ncn2[C@@H]1O[C@H](CNS(=O)(=O)NC(=O)[C@@H](N)Cc2c[nH]c3ccccc23)[C@@H](O)[C@H]1O` [Compound X, 5'-deoxy-adenosine 5'-N-(N-L-tryptophanyl)sulfamide], the IC50 is 300 nM in assay [1], 530 nM in assay [2] (setting [6]) and 80 nM in assay [3].
As for `NCCCC[C@H](N)C(=O)NS(=O)(=O)NC[C@H]1O[C@@H](n2cnc3c(N)ncnc32)[C@H](O)[C@@H]1O` [Compound XI], the IC50 was 8 nM in assay [1] and 2530 nM in assay [2] (setting [6]).
Regarding `CC(C)C[C@H](N)C(=O)NS(=O)(=O)NC[C@H]1O[C@@H](n2cnc3c(N)ncnc32)[C@H](O)[C@@H]1O` [III], the IC50 in assay [1] turned out to be 0.5 nM; in assay [2] (setting [6]), 1370 nM; in assay [3], 13000 nM.
On to `CC(C)[C@H](N)C(=O)NS(=O)(=O)NC[C@H]1O[C@@H](n2cnc3c(N)ncnc32)[C@H](O)[C@@H]1O` [II], for which the IC50 is 27 nM in assay [1] and 4950 nM in assay [2] (setting [6]).
Turning to `CSCC[C@H](N)C(=O)NS(=O)(=O)NC[C@H]1O[C@@H](n2cnc3c(N)ncnc32)[C@H](O)[C@@H]1O` [IV], the IC50 in assay [1] is 3 nM; in assay [2] (setting [6]), 1050 nM.
With `NCC(=O)NS(=O)(=O)NC[C@H]1O[C@@H](n2cnc3c(N)ncnc32)[C@H](O)[C@@H]1O` [IX], the IC50 in assay [1] was determined as 50 nM; in assay [2] (setting [6]), 1490 nM.
With `CC[C@H](C)[C@H](N)C(=O)NS(=O)(=O)NC[C@H]1O[C@@H](n2cnc3c(N)ncnc32)[C@H](O)[C@@H]1O` [I], the IC50 in assay [1] worked out at 0.9 nM; in assay [2] (setting [6]) it was 3050 nM.
For the compound `CN(Cc1cnc2nc(N)nc(N)c2n1)c1ccc(C(=O)N[C@@H](CCC(=O)O)C(=O)O)cc1` [Methotrexate, reference compound], the IC50 in assay [2] (A253, 72 h) was determined as 40 nM.
Turning to `CC(=CC(=O)OCCCCCCCCC(=O)O)CC1OCC(CC2OC2C(C)C(C)O)C(O)C1O` (stereo not drawn) [Pseudomonic acid A], the “inhibition of isoleucyl adenylate formation” value in assay [4] is recorded as “inhibits isoleucyl adenylate formation”. In assay [5], the “inhibition of protein synthesis and growth” value is reported as “inhibition of protein synthesis, followed by growth inhibition”.
For the compound `CC1=C(/C=C/C(C)=C/C=C/C(C)=C/C(=O)O)C(C)(C)CCC1` [Retinoic acid, reference compound], the IC50 in assay [2] (A253, 72 h) was found to be 266000 nM.
Consider `Nc1ncnc2c1ncn2[C@@H]1O[C@H](CNS(=O)(=O)NC(=O)[C@@H](N)CO)[C@@H](O)[C@H]1O` [VI, 5'-deoxy-adenosine 5'-N-(N-L-seryl)sulfamide], for which the values for the IC50 in assay [1] and in assay [2] (setting [6]) were 140 nM and 9250 nM, respectively.
Regarding `Nc1ncnc2c1ncn2[C@@H]1O[C@H](CNS(=O)(=O)NC(=O)[C@@H](N)CC(=O)O)[C@@H](O)[C@H]1O` [VIII], the IC50 was found to be 174 nM in assay [1] and 5000 nM in assay [2] (setting [6]).
For the compound `C[C@H](N)C(=O)NS(=O)(=O)NC[C@H]1O[C@@H](n2cnc3c(N)ncnc32)[C@H](O)[C@@H]1O` [VII], the IC50 in assay [1] amounted to 22 nM; in assay [2] (setting [6]), 1440 nM.
Turning to `Nc1ncnc2c1ncn2[C@@H]1O[C@H](CNS(=O)(=O)NC(=O)[C@@H](N)Cc2ccc(O)cc2)[C@@H](O)[C@H]1O` [V], the half-inhibitory concentration (IC50) in assay [1] came to 17 nM; in assay [2] (setting [6]), 790 nM.
Turning to `Nc1ncnc2c1ncn2[C@@H]1O[C@H](CNS(=O)(=O)NC(=O)[C@@H](N)Cc2c[nH]cn2)[C@@H](O)[C@H]1O` [XIII], the figures for the IC50 in assay [1] and in assay [2] (setting [6]) were 2 nM and 2690 nM, respectively.
Take `Nc1ncnc2c1ncn2[C@@H]1O[C@H](CNS(=O)(=O)NC(=O)[C@@H](N)CCC(=O)O)[C@@H](O)[C@H]1O` [XII]: the half-inhibitory concentration (IC50) in assay [2] (setting [6]) is 10500 nM.
As for `C[C@@H](O)[C@H](N)C(=O)NS(=O)(=O)NC[C@H]1O[C@@H](n2cnc3c(N)ncnc32)[C@H](O)[C@@H]1O` [XVIII], the IC50 in assay [1] amounted to 40 nM; in assay [2] (setting [6]), 9630 nM.
For the compound `N=C(N)NCCC[C@H](N)C(=O)NS(=O)(=O)NC[C@H]1O[C@@H](n2cnc3c(N)ncnc32)[C@H](O)[C@@H]1O` [XVII], the IC50 in assay [1] worked out at 14 nM; in assay [2] (setting [6]), 3990 nM.
Take `NC(=O)CC[C@H](N)C(=O)NS(=O)(=O)NC[C@H]1O[C@@H](n2cnc3c(N)ncnc32)[C@H](O)[C@@H]1O` [XVI]: the IC50 is 400 nM in assay [1] and 3590 nM in assay [2] (setting [6]).
With `Nc1ncnc2c1ncn2[C@@H]1O[C@H](CNS(=O)(=O)NC(=O)[C@@H]2CCCN2)[C@@H](O)[C@H]1O` [XV], the IC50 in assay [1] worked out at 1 nM; in assay [2] (setting [6]), 900 nM.
